Test results from publication PMC7822874, “Chemoprotective antimalarials identified through quantitative high-throughput screening of Plasmodium blood and liver stage parasites” (Scientific Reports, 2021).
Where two headings read alike, the source gives them in different places.

Legend:
[1] = tested on: P. falciparum Dd2 Cytb A122D; assay: SYBR Green ABS proliferation assay, NCGC00473217 selected clone F12; format: cell-based, Plasmodium falciparum; conditions: Plasmodium falciparum
Method: (§1) As resistance selection studies implicated the parasite cytochrome bc1 complex in mediating reduced parasite susceptibility to both NCGC00473217 and NCGC00374598, we leveraged these drug-selected parasites to test for altered drug response to a panel of antimalarial compounds.
(§2) The P. falciparum parasite Dd2 line was cultured in vitro using standard conditions. […] Tissue culture flasks and assay plates were incubated at 37 °C under a gas mixture of 5% CO2, 5% O2 and 90% N2. […] Significant differences were assessed using two-sided Student’s t-tests. All HTS assays were stopped and read at 72 h. Percent response values represent relative growth as judged by SYBR Green-I fluorescence intensity values normalized to controls.
(§3) Fresh uninfected RBCs (0.5% hematocrit) were added on day 7 and media was changed every other day. […] Resistant parasites were maintained under drug media at a volume of 50 mL until a high parasitemia (> 5%) was achieved. Aliquots of the bulk resistant cultures were frozen in cryovials before cloning by limiting dilution in 96-well plates (seeded at 0.25 or 0.5 parasites/well)[70]. After 3 weeks of cloning, we screened for positive wells by flow cytometry with SYBR Green-stained cells. […] Parasites were harvested by saponin lysis at the trophozoite stage and genomic DNA was extracted using the QIAamp DNA Blood Midi Kit (Qiagen, Germantown, MD)[71].

[2] = tested on: P. falciparum Dd2 (clone B2) asexual blood stage parasites; assay: P. falciparum Dd2 asexual blood stage SYBR Green-I 72 h proliferation assay (qHTS); format: cell-based, Plasmodium falciparum; conditions: Plasmodium falciparum, DD2, Dd2 parental; Hill fit, averaged from three independent replicates; top concentration 29 µM; read-out: Average AC50 (Log[M]), Dd2 (converted)
[3] = tested on: P. falciparum Dd2 Cytb V259L; assay: SYBR Green ABS proliferation assay, NCGC00473217 selected clone F06; format: cell-based, Plasmodium falciparum; conditions: Plasmodium falciparum
Method: as §1, §2, §3

[4] = tested on: P. falciparum Dd2 Cytb G131S; assay: SYBR Green ABS proliferation assay, NCGC00374598 selected clone C11; format: cell-based, Plasmodium falciparum; conditions: Plasmodium falciparum
Method: as §1, §2, §3

[5] = tested on: P. falciparum Dd2 Cytb F123L; assay: SYBR Green ABS proliferation assay, NCGC00473217 selected clone G08; format: cell-based, Plasmodium falciparum; set-up: log AC50, mean: unit: log10(M); conditions: for AC50: Plasmodium falciparum; for log AC50, mean: cytochrome b mutant line
Method: as §1, §2, §3

[6] = tested on: luciferase-expressing P. berghei liver stage parasites in HepG2 cells; assay: Inhibition of liver-stage development assay (ILSDA), Method 2 (WRAIR, 96-well); format: cell-based, Plasmodium berghei; conditions: P. berghei liver stage, Method 2, dose response
[7] = tested on: P. berghei-ANKA-GFP-LucCON liver stage parasites in HepG2-A16-CD81EGFP cells; assay: P. berghei liver stage Pb-Luc assay, Method 1 (UCSD, 1536-well); format: cell-based, Plasmodium berghei; conditions: Method 1; for AC50: Plasmodium berghei
[8] = tested on: Plasmodium falciparum Dd2 asexual blood stage parasites; assay: microbe, parasite or virus in culture; set-up: species or system Plasmodium falciparum Dd2 in human erythrocytes; single determination (one 11-point concentration-response curve); conditions: Plasmodium falciparum, DD2, Erythrocyte, 72 h; read-out: AC50
[9] = DD2, […], averaged from three independent replicates, top concentration 29 µM, read-out: Average AC50 (Log[M]), NCGC00473217 clone F12 (Cytb A122D) (converted)
[10] = DD2, […], averaged from three independent replicates, top concentration 29 µM, read-out: Average AC50 (Log[M]), NCGC00473217 clone F06 (Cytb V259L) (converted)
[11] = DD2, […], averaged from three independent replicates, top concentration 29 µM, read-out: Average AC50 (Log[M]), NCGC00374598 clone C11 (Cytb G131S) (converted)
[12] = DD2, […], averaged from three independent replicates, top concentration 29 µM, read-out: Average AC50 (Log[M]), NCGC00473217 clone G08 (Cytb F123L) (converted)
[13] = DD2, cytochrome b mutant line, fifth value triple, c15, […], read-out: log AC50, mean (converted)
[14] = DD2, cytochrome b mutant line, fourth value triple, c12, […], read-out: log AC50, mean (converted)
[15] = DD2, cytochrome b mutant line, third value triple, c9, […], read-out: log AC50, mean (converted)
[16] = DD2, cytochrome b mutant line, second value triple, c6, […], read-out: log AC50, mean (converted)

| Compound | AC50 [1, 9] | AC50 [2] | AC50 [3, 10] | AC50 [4, 11] | further results |
| --- | --- | --- | --- | --- | --- |
| N[S+](=O)([O-])c1cc2c(cc1Cl)NCN[S+]2(=O)[O-] [NCGC00015508-23] | 1.78e-07 M | 7.1e-07 M | 5.64e-07 M | 8.93e-07 M | – |
| NS(=O)(=O)c1cc2c(cc1C(F)(F)F)NC(Cc1ccccc1)NS2(=O)=O (stereo not drawn) [NCGC00018194-08] | – | – | 1.26e-06 M | 1e-08 M | AC50 [5, 12]: 8.93e-06 M |
| CN1C(CSCC(F)(F)F)Nc2cc(Cl)c(S(N)(=O)=O)cc2S1(=O)=O (stereo not drawn) [NCGC00182076-03] | 1e-08 M | 2.82e-06 M | – | 3.56e-06 M | – |
| O=c1[nH]c(N2CCOCC2)nc2c1CCN(Cc1cc(Cl)ccc1F)CC2 [NCGC00440651-01] | – | – | – | – | AC50 [5, 13]: 2.16e-06 M; log AC50, mean ([5]; fifth value triple, c15, […]): -5.575; Activity direction (Decrease / Inactive) [6]: Inactive; AC50 ([7]; Hill fit, 50% of maximum activity response, read-out: AC50): 2820 nM; AC50 ([7]; log10 of molar AC50 from Hill fit, read-out: Log AC50 (converted)): 2820 nM; AC50 [8]: 2370 nM |
| O=c1[nH]c(N2CCOCC2)nc2c1CCN(Cc1ccc(Cl)cc1F)CC2 [NCGC00440653-01] | – | – | – | – | AC50 [5, 13]: 2.16e-06 M; log AC50, mean ([5]; fifth value triple, c15, […]): -5.475; Activity direction (Decrease / Inactive) [6]: Inactive; Max Resp (signal direction of the dose response) ([7]; Decrease = decreasing P. berghei viability with dose, Increase = increasing signal, Inactive = no dose response): Inactive; AC50 [8]: 3350 nM |
| CCCN1C(CC(C)C)=N[S+](=O)([O-])c2cc([N+](=O)[O-])ccc21 [NCGC00510308-01] | – | – | 1.59e-05 M | – | AC50 [5, 12]: 2.52e-09 M |
| CCCN1C(CC(C)C)=N[S+](=O)([O-])c2cc(NC(=O)c3cnon3)ccc21 [NCGC00521034-01] | – | – | 1e-05 M | – | AC50 [5, 12]: 1.59e-06 M |
| CCCN1C(CC(C)C)=N[S+](=O)([O-])c2cc(NC(=O)c3cncs3)ccc21 [NCGC00521052-01] | 1.72e-06 M | 4.84e-06 M | 5.86e-06 M | 6.58e-07 M | – |
| CCCN1C(CC(C)C)=N[S+](=O)([O-])c2cc(NC(=O)COC)ccc21 [NCGC00521098-01] | 1.12e-05 M | 8.93e-06 M | 1.68e-05 M | 3.56e-06 M | – |
| CCCN1C(CC(C)C)=N[S+](=O)([O-])c2cc(NC(=O)c3ccc(F)cc3)ccc21 [NCGC00521139-01] | 4.74e-07 M | 5.22e-07 M | 5.64e-07 M | 3.56e-07 M | – |
| CCCN1C(CC(C)C)=N[S+](=O)([O-])c2cc(N)ccc21 [NCGC00521151-01] | – | 2e-05 M | – | 2e-06 M | AC50 [5, 12]: 3.99e-06 M |
| CCCN1C(CC(C)C)=N[S+](=O)([O-])c2cc(NC(=O)C3CCCO3)ccc21 (stereo not drawn) [NCGC00521155-01] | 8.93e-06 M | 1.26e-05 M | 5.97e-06 M | – | – |
| CCCN1C(CC(C)C)=N[S+](=O)([O-])c2cc(NC(=O)c3ccsc3)ccc21 [NCGC00521157-01] | 8.93e-07 M | 2e-06 M | 1.34e-06 M | 2.08e-06 M | – |
| CCCN1C(CC(C)C)=N[S+](=O)([O-])c2cc(NC(=O)c3ccc(-c4ccccc4)cc3)ccc21 [NCGC00521159-01] | 8.93e-06 M | 8.93e-06 M | 7.1e-06 M | 7.1e-06 M | – |
| CCCN1C(CC(C)C)=N[S+](=O)([O-])c2cc(N[S+](=O)([O-])c3ccc(F)cc3)ccc21 [NCGC00521879-01] | – | – | – | – | AC50 [5, 12]: 6.32e-07 M |
| CCCN1C(C)=N[S+](=O)([O-])c2cc(NC(=O)c3ccccc3)ccc21 [NCGC00522605-01] | – | 1e-05 M | – | 2e-06 M | AC50 [5, 12]: 3.56e-07 M |
| CCCN1C(CC(C)C)=N[S+](=O)([O-])c2cc(NC(=O)c3ccc(C(F)(F)F)cc3)ccc21 [NCGC00531759-01] | 8.93e-10 M | – | 8.93e-07 M | 2.52e-06 M | – |
| CC(C)CC1=N[S+](=O)([O-])c2cc(NC(=O)c3ccc(F)cc3)ccc2N1 [NCGC00532402-01] | – | – | – | – | AC50 [1, 14]: 1.12e-06 M; AC50 [3, 15]: 3.99e-07 M |
| O=C(Nc1ccc2c(c1)[S+](=O)([O-])N=C1CCCN12)c1cccs1 [NCGC00537660-01] | – | – | – | – | AC50 [5, 13]: 2e-09 M |
| O=C(Nc1ccc2c(c1)[S+](=O)([O-])N=C1CCCN12)c1ccc(F)cc1 [NCGC00537667-01] | – | – | – | – | AC50 [1, 14]: 1e-05 M; AC50 [3, 15]: 1.59e-05 M; AC50 [4, 16]: 1.78e-05 M |
| CC(C)CC1=N[S+](=O)([O-])c2cc(NC(=O)c3ccc(F)s3)ccc2N1C [NCGC00651708-01] | – | – | – | – | AC50 [1, 14]: 2.11e-06 M; AC50 [4, 16]: 2.99e-06 M |
